Data taken from patent US10745395B2, “Compounds for their use as drugs for the treatment and/or the prevention of infection(s) caused by biofilm-forming bacteria” (CENTRE NATIONAL DE LA RECHERCHE SCIENTIFIQUE, priority 2014, dated 2020).

Experiments:
Assay type in all cases: cell-based, Pseudomonas aeruginosa
[1] = tested on: P. aeruginosa strain PAR 20 biofilm; assay: Early biofilm model, Congo red staining; details: for absorbance (Congo red, biofilm formation): early biofilm, 0.9 mM, 492 nm
Method: (§1) P. aeruginosa biofilm was set-up in sterile plastic 96-well plates with adherent surface (Greiner Bio-One, USA).
(§2) Twenty microliter quantities of the bacterial stock suspensions, prepared as described above, were added to each well followed with 180 μl of sterile TSB. Final concentration of the bacteria was 1×10^8 CFU/ml.
(§3) The plates were centrifuged for 10 minutes at 2000 rpm to sediment bacteria on the bottom of each well and then incubated for 72 hours (37° C., aerobic conditions).
(§4) Biofilm quantity was determined using Congo red dye according to a modified procedure described by Allison et al. (Allison G C, Sutherland I W. A staining technique for bacteria and its correlation to extracellular carbohydrate production. J Microbiol Meth 2, 93-99 (1984)).
(§5) Briefly, at different time points (0, 6, 18, 24, 48 and 72 hours), the culture medium was gently removed from wells by using the pipette and immediately 200 μl of 0.1% Congo red solution was added. The plates were left for 30 minutes at room temperature and then 10 minutes before the end of staining, the plate was centrifuged for 10 minutes at 2000 rpm and then washed twice with buffered saline to remove unbound dye. Absorbance was measured at λ=492 nm wavelength using spectrophotometer (Awarness Technology Inc., Palm City, Fla., USA). All measurements were performed in triplicates and mean values±SD are given.
(§6) Early biofilm model: formation of early biofilm under influence of the tested substances was observed by filling wells of a 96-well plate with 20 μl of P. aeruginosa suspension and 180 μl of TSB, as described above. Tested iminosugars (compounds 1, 2, 3 and 4) were added immediately after setting-up the bacteria at a final concentration of 0.9 mM. Then, the plate was gently mixed and incubated for 48 hours at 37° C.
(§7) Biofilm formation and the number of viable bacteria were checked in parallel in the following time intervals: 0, 0.5, 8, 24, 48 hours, in accordance with the procedure described above. Biofilm thickness was estimated by staining it with Cango Red and measuring optical density while number of viable bacteria was performed using the standard viable count method. (Allison G C, Sutherland I W. A staining technique for bacteria and its correlation to extracellular carbohydrate production. J Microbiol Meth 2, 93-99 (1984)).
(§8) P. aeruginosa suspension cultures in TSB broth alone were used as a control.

[2] = tested on: P. aeruginosa strain PAR 5 biofilm; assay: Early biofilm model, Congo red staining; details: for absorbance (Congo red, biofilm formation): 0.9 mM, 492 nm
Method: as §1, §2, §3, §4, §5, §6, §7, §8

[3] = tested on: P. aeruginosa strain PAR 50 biofilm; assay: Early biofilm model, Congo red staining; details: for absorbance (Congo red, biofilm formation): early biofilm, 0.9 mM, 492 nm
Method: as §1, §2, §3, §4, §5, §6, §7, §8

[4] = tested on: P. aeruginosa strain PAR 20 biofilm; assay: Mature biofilm model, Congo red staining; details: for absorbance (Congo red, biofilm development): mature biofilm, compound added 48 h after induction of biofilm
Method: as §4, §5
(§9) Mature biofilm model: the tested substances were added 48 hours after adherence of bacteria to the wells in a 96-well plate. The growth conditions of P. aeruginosa were exactly the same, as described above for the early biofilm model.
(§10) After the addition of iminosugars (compounds 1, 2, 3 and 4), the biofilm formation and the number of viable bacteria were checked in the following time intervals: 48, 48.5, 56, 72, 96 hours.

[5] = tested on: P. aeruginosa strain PAR 5 biofilm; assay: Mature biofilm model, Congo red staining; details: for absorbance (Congo red, biofilm development): mature biofilm, compound added 48 h after induction of biofilm
Method: as §4, §5, §9, §10

[6] = tested on: P. aeruginosa strain PAR 50 biofilm; assay: Mature biofilm model, Congo red staining; details: for absorbance (Congo red, biofilm development): mature biofilm, compound added 48 h after induction of biofilm
Method: as §4, §5, §9, §10

[7] = tested on: P. aeruginosa strain PAR 20; assay: Number of viable bacteria in early and mature biofilm (viable count)
Method: as §7, §10
(§11) Numbers of viable bacteria contained in the early and mature biofilm were estimated on separate plates with wells filled with tested P. aeruginosa strains as described above (PAR 5, PAR 20, PAR 50).
(§12) At the same time intervals, biofilm content in each well was removed and mixed by multiple pippeting and transferred to sterile tubes. Then decimal dilutions of the bacterial suspension were made in TSB broth, plated on McConkey Agar (Oxoid), and incubated at 37° C. for 24 hours.
(§13) Numbers of colonies grown on platter were counted and total numbers of the viable bacteria calculated as colony forming units (CFU) per ml.
(§14) The results depict logs of CFU/ml for three P. aeruginosa strains: PAR 5, PAR 20 and PAR 50 measured at different time intervals (0 hours, 8 hours, 24 hours, 48 hours, 56 hours, 72 hours and 96 hours). The detection limit is 100 CFU/ml.

[8] = tested on: P. aeruginosa strain PAR 50; assay: as above
Method: as §7, §10, §11, §12, §13, §14

[9] = tested on: P. aeruginosa strain PAR 5; assay: as above
Method: as §7, §10, §11, §12, §13, §14

[10] = tested on: P. aeruginosa strain PAR 5 biofilm; assay: Reduction of biofilm growth (percent vs culture control)
Description: (§15) FIG. 4A represents the effect of the tested compounds (1, 2, 3 and 4) on exopolysaccharide biosynthesis in the early stages and mature P. aeruginosa biofilm formation, strain PAR 5. The abscissa represents the time (in hours) in order to differentiate early biofilm and mature biofilm, and the ordinate represents the percentage of the biofilm reduction.
as §6, §9
(§16) The effect of the tested compounds (1, 2, 3 and 4) on the reduction of biofilm growth has also been studied on the three P. aeruginosa strains PAR 5, PAR 20, PAR 50.
(§17) (Percent decrease in biofilm thickness was obtained as a mean value from 3 consecutive measurements of the Congo Red stained biofilm using spectrophotometer after addition of the tested iminosugars in comparison to control regarded as 100%).

[11] = tested on: P. aeruginosa strain PAR 20 biofilm; assay: as above
Description: as §15, with “4B” for “4A”, “20.” for “5.”
as §6, §9, §16, §17

[12] = tested on: P. aeruginosa strain PAR 50 biofilm; assay: as above
Description: as §15, with “4C” for “4A”, “50.” for “5.”
as §6, §9, §16, §17

[13] = in comparison with culture control

OCC(O)C[C@H]1NC[C@H](O)[C@H](O)[C@H]1O (stereo partly drawn) [Compound 2, β-1-C-(2,3-dihydroxypropyl)-1,5-dideoxy-1,5-imino-L-arabinitol]
absorbance (Congo red, biofilm formation) ([1]; 8 hours): about 0.75 a.u. | absorbance (Congo red, biofilm formation) ([1]; 24 hours): about 0.9 a.u. | absorbance (Congo red, biofilm formation) ([1]; 48 hours): about 0.9 a.u. | effect on formation of an early biofilm [1, 13]: inhibit the formation of an early biofilm | biofilm formation at 8 hours, 24 hours and 48 hours ([2]; early biofilm): no biofilm formation | absorbance (Congo red, biofilm formation) ([2]; early biofilm, 8 hours): about 0.25 a.u. | absorbance (Congo red, biofilm formation) ([2]; early biofilm, 24 hours): about 0.25 a.u. | absorbance (Congo red, biofilm formation) ([2]; early biofilm, 48 hours): about 0.25 a.u. | effect on formation of an early biofilm [2, 13]: inhibit the formation of an early biofilm | absorbance (Congo red, biofilm formation) ([3]; 8 hours): about 0.8 a.u. | absorbance (Congo red, biofilm formation) ([3]; 24 hours): about 0.7 a.u. | absorbance (Congo red, biofilm formation) ([3]; 48 hours): about 1.1 a.u. | effect on formation of an early biofilm [3, 13]: inhibit the formation of an early biofilm | influence on mature biofilm formation [4]: weak influence | absorbance (Congo red, biofilm development) ([4]; 48 hours): about 0.6 a.u. | absorbance (Congo red, biofilm development) ([4]; 56 hours): about 0.7 a.u. | absorbance (Congo red, biofilm development) ([4]; 72 hours): about 1.1 a.u. | absorbance (Congo red, biofilm development) ([4]; 96 hours): about 2.0 a.u. | influence on mature biofilm formation [5]: weak influence | absorbance (Congo red, biofilm development) ([5]; 48 hours): about 0.75 a.u. | absorbance (Congo red, biofilm development) ([5]; 56 hours): about 1.0 a.u. | absorbance (Congo red, biofilm development) ([5]; 72 hours): about 1.25 a.u. | absorbance (Congo red, biofilm development) ([5]; 96 hours): about 1.5 a.u. | influence on mature biofilm formation [6]: weak influence | absorbance (Congo red, biofilm development) ([6]; 48 hours): about 2.0 a.u. | absorbance (Congo red, biofilm development) ([6]; 56 hours): about 1.75 a.u. | absorbance (Congo red, biofilm development) ([6]; 72 hours): about 1.75 a.u. | absorbance (Congo red, biofilm development) ([6]; 96 hours): about 2.0 a.u. | number of viable P. aeruginosa ([7]; early biofilm, 0 h): 2 × 10^6 CFU/ml | number of viable P. aeruginosa ([7]; early biofilm, 8 h): 4 × 10^7 CFU/ml | number of viable P. aeruginosa ([7]; early biofilm, 24 h): 3 × 10^8 CFU/ml | number of viable P. aeruginosa ([7]; early biofilm, 48 h): 1 × 10^9 CFU/ml | number of viable P. aeruginosa ([7]; mature biofilm, 56 h): 4 × 10^8 CFU/ml | number of viable P. aeruginosa ([7]; mature biofilm, 72 h): 3 × 10^7 CFU/ml | number of viable P. aeruginosa ([7]; mature biofilm, 96 h): 3 × 10^8 CFU/ml | number of viable P. aeruginosa ([8]; early biofilm, 0 h): 3 × 10^7 CFU/ml | number of viable P. aeruginosa ([8]; early biofilm, 8 h): 2 × 10^8 CFU/ml | number of viable P. aeruginosa ([8]; early biofilm, 24 h): 7 × 10^8 CFU/ml | number of viable P. aeruginosa ([8]; early biofilm, 48 h): 1 × 10^8 CFU/ml | number of viable P. aeruginosa ([8]; mature biofilm, 56 h): 6 × 10^9 CFU/ml | number of viable P. aeruginosa ([8]; mature biofilm, 72 h): 1 × 10^9 CFU/ml | number of viable P. aeruginosa ([8]; mature biofilm, 96 h): 9 × 10^9 CFU/ml | number of viable P. aeruginosa ([9]; early biofilm, 0 h): 8 × 10^6 CFU/ml | number of viable P. aeruginosa ([9]; early biofilm, 8 h): 2 × 10^7 CFU/ml | number of viable P. aeruginosa ([9]; early biofilm, 24 h): 1 × 10^7 CFU/ml | number of viable P. aeruginosa ([9]; early biofilm, 48 h): 1 × 10^7 CFU/ml | number of viable P. aeruginosa ([9]; mature biofilm, 56 h): 4 × 10^8 CFU/ml | number of viable P. aeruginosa ([9]; mature biofilm, 72 h): 2 × 10^8 CFU/ml | number of viable P. aeruginosa ([9]; mature biofilm, 96 h): 5 × 10^8 CFU/ml | reduction of biofilm growth ([10]; 8 hours of incubation): about 90% | reduction of biofilm growth ([10]; 24 hours of incubation): about 90% | reduction of biofilm growth ([10]; 48 hours of incubation): about 25% | reduction of biofilm growth ([10]; 72 hours of incubation): about 10% | effect on biofilm growth ([10]; notably an early biofilm): can reduce the biofilm growth | reduction of biofilm growth ([11]; 8 hours of incubation): about 45% | reduction of biofilm growth ([11]; 24 hours of incubation): about 45% | reduction of biofilm growth ([11]; 48 hours of incubation): about 0% | reduction of biofilm growth ([11]; 72 hours of incubation): about 0% | effect on biofilm growth ([11]; notably an early biofilm): can reduce the biofilm growth | reduction of biofilm growth ([12]; 8 hours of incubation): about 50% | reduction of biofilm growth ([12]; 24 hours of incubation): about 70% | reduction of biofilm growth ([12]; 48 hours of incubation): about 0% | reduction of biofilm growth ([12]; 72 hours of incubation): about 20% | effect on biofilm growth ([12]; notably an early biofilm): can reduce the biofilm growth
